Laboratory results as given in patent US20210290580A1, “New use of carbamate ß phenylethanolamine analogues for enhancing intracellular clearance of LDL cholesterol and for combining therapy with statins to enhance the efficacy and reduce adverse effects” (priority 2018, published 2021).

What was measured:
LDL receptors = experiment: LDL receptor expression, anti-LDLR immunofluorescence in liver cells; type: cell-based, Mouse; details: 24 hours; for Up-regulating of LDL receptors (Intensity of fluoresces) MEAN %: hepatic (AML12) cells, control = 100
Experimental: Cells were incubated with florescence labeled LDL to study the up-taking and metabolite of LDL cholesterol by the cells. LDL specific antibody were used to study LDL receptors expressed by the cells. […] After 24 hours of treatments, the cells were washed and fixed with paraformaldehyde. Cells were then incubated with anti-LDLR primary antibody with 1:200 dilution at room temperature for 4 hours. After washed, the second antibody Alexa Fluor 488 with 1:200 dilutions was added and incubated at room temperature for 2 hours. The cells were washed again before examined under fluorescent microscope. The fluorescence anti-body bound LDL receptors in green and either bound or internalized fluoresces labeled LDL in red were examined separately or after merging. Fluorescent microscope equipped with a digital camera (Axio Observer 7). Computer software was used to quantify the intensity of fluorescence, which is correlated with the amount of LDL and LDL receptors bounded to antibodies.

Mouse liver AML12 cells [1] = experiment: Up-taking of fluorescence labeled LDL by liver cells; type: cell-based; details: 10 μM and 20 μM, 24 hours, compared between groups
Experimental: Mouse liver AML12 cells were seeded in 24 well plates in DMEM/F12 and supplemented with 10% heat-inactivated fetal bovine serum. Cells were incubated with florescence labeled LDL to study the up-taking and metabolite of LDL cholesterol by the cells. LDL specific antibody were used to study LDL receptors expressed by the cells. […] The fluorescence anti-body bound LDL receptors in green and either bound or internalized fluoresces labeled LDL in red were examined separately or after merging. Fluorescent microscope equipped with a digital camera (Axio Observer 7). Computer software was used to quantify the intensity of fluorescence, which is correlated with the amount of LDL and LDL receptors bounded to antibodies.

Mouse liver AML12 cells [2] = experiment: Intracellular cholesterol content in AML12 cells loaded with LDL; type: cell-based; details: for Intracellular cholesterol MEAN % (Synergistic Effects of Combining R-bambuterol and Statin): 10 μM (each drug 10 μM in the combination), LDL 40 μg/ml, AML12 cells, LDL Ctrl = 100; for Reduction of intercellular cholesterol, in words: 10 μM, Mouse liver AML12 cells
Experimental: (§1) Cells were then treated with different doses of R-bambuterol (R-BM) in the present of LDL (40 μg/ml). After 24 hours of incubation, total intracellular and extracellular cholesterol content were determined using Total Cholesterol Assay Kit E105 (Applygen Technologies Inc., Beijing, China) according to the manufacturer's protocol. The intracellular cholesterol is similar in control and LDL groups.

Human liver HepG2 cells = experiment: Intracellular cholesterol content in HepG2 cells loaded with LDL (Total Cholesterol Assay Kit); type: cell-based; details: LDL 40 μg/ml, 24 hours, LDL control = 100
Experimental: as §1, with “Human liver HepG2 cells were seeded in six well plates in DMEM/F12 supplemented with 10% heat-inactivated fetal bovine serum. Cells” for “Cells”, “protocol.” for “protocol. The intracellular cholesterol is similar in control and LDL groups.”

[3] = system: Pulmonary artery smooth muscle cell (PASMC)
Experimental: Cells were cultivated for 24 hours at room temperature. The cells then replaced again with FBS-free medium containing 10% CCK-8 reagent and cultivated for 3 hours in the dark.
A Multi-function micro plate reader (TriStar2S LB942) was used to measure the cell viability.
Cells added no drugs (0 μM) were used as control.

[4] = 20 μM (each drug 20 μM in the combination)

CN(C)C(=O)Oc1cc(OC(=O)N(C)C)cc(C(O)CNC(C)(C)C)c1 (stereo not shown) [R-BM, R-bambuterol]
Up-regulating of LDL receptors (Intensity of fluoresces) MEAN % (LDL receptors; 10 μM): 202.9%
Up-regulating of LDL receptors (Intensity of fluoresces) MEAN % (LDL receptors; [4]): 337.2%
Increase in LDL receptors expression compared with statin treated groups (LDL receptors; AML12 cells): twice as much as seen in statin treated groups
Bound and intracellular fluorescence labeled LDL (Mouse liver AML12 cells [1]): significantly more bound and intracellular fluorescence labeled LDL
Intracellular cholesterol MEAN % (Synergistic Effects of Combining R-bambuterol and Statin) (Mouse liver AML12 cells [2]): 94.5%
Reduction of intercellular cholesterol, in words (Mouse liver AML12 cells [2]): less reduction of intercellular cholesterol
Reduction of intercellular LDL cholesterol MEAN % (Human liver HepG2 cells; 5 μM): 94.07%
Reduction of intercellular LDL cholesterol MEAN % (Human liver HepG2 cells; 10 μM): 69.26%
Reduction of intercellular LDL cholesterol MEAN % (Human liver HepG2 cells; 20 μM): 28.54%
Reduction of intercellular LDL cholesterol MEAN % (Human liver HepG2 cells; 40 μM): 36.04%
Reduction of intercellular LDL cholesterol MEAN % (Human liver HepG2 cells; 80 μM): 21.02%
Toxicity to the viability of PASMC, in words [3]: no toxicity

CC(C)c1c(C(=O)Nc2ccccc2)c(-c2ccccc2)c(-c2ccc(F)cc2)n1CC[C@@H](O)C[C@@H](O)CC(=O)O [Statin, Atorvastatin]
Up-regulating of LDL receptors (Intensity of fluoresces) MEAN % (LDL receptors; 10 μM): 159.1%
Up-regulating of LDL receptors (Intensity of fluoresces) MEAN % (LDL receptors; [4]): 140.2%
Intracellular cholesterol MEAN % (Synergistic Effects of Combining R-bambuterol and Statin) (Mouse liver AML12 cells [2]): 95.3%
Reduction of intercellular cholesterol, in words (Mouse liver AML12 cells [2]): little effects on intercellular cholesterol
